Assay results: ChEMBL document CHEMBL5360673, “2B Determined: The Future of the Serotonin Receptor 2B in Drug Discovery” (J Med Chem, 2023)

Assays:
Cytochrome P450 1A2 = target: T1, Cytochrome P450 1A2 (Homo sapiens, UniProt P05177); test: Inhibition of CYP1A2 (unknown origin); assay type: ADME
T1 sequence (P05177 whole entry): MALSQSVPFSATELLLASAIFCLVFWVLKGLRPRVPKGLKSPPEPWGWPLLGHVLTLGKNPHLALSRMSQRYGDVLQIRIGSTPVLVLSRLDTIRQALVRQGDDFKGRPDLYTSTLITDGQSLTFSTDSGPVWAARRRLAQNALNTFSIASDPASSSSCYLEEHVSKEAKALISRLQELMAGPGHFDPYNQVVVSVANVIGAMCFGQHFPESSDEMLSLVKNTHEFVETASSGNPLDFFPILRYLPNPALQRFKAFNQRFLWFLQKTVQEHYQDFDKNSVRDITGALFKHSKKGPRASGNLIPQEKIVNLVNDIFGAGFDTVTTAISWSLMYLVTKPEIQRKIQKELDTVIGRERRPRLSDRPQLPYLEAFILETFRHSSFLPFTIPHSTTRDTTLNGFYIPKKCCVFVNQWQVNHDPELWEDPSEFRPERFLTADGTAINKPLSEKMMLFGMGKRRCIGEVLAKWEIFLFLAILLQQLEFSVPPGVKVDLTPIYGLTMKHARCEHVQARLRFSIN

Cytochrome P450 2C9 = Cytochrome P450 2C9 (Homo sapiens, UniProt P11712); test: Inhibition of CYP2C9 (unknown origin); assay type: ADME
Cytochrome P450 2D6 = Cytochrome P450 2D6 (Homo sapiens, UniProt P10635); test: Inhibition of CYP2D6 (unknown origin); assay type: ADME
Cytochrome P450 3A4 = Cytochrome P450 3A4 (Homo sapiens, UniProt P08684); test: Inhibition of CYP3A4 (unknown origin); assay type: ADME
[1] = Ratio of drug concentration in brain to plasma of C57BL/6 mouse administered intraperitoneally and measured for 0.25 to 24 hrs; assay type: ADME; settings: time 0.25-24 hrs, route ip, read-out: BPR
[2] = Half life in ip dosed C57BL/6 mouse; assay type: ADME, organism-based; settings: in vivo
[3] = Cmax in ip dosed C57BL/6 mouse; assay type: ADME, organism-based; design: route ip; settings: in vivo
[4] = target: T2, 5-hydroxytryptamine receptor 2B (Homo sapiens, UniProt P41595); test: Binding affinity to 5-HT2B receptor (unknown origin)
[5] = Selectivity ratio, […] for 5-HT2B (unknown origin)
[6] = target: T2, 5-hydroxytryptamine receptor 2B; test: Displacement of [3H]-LSD from human 5-HT2B receptor assessed as inhibition constant
[7] = target: T2, 5-hydroxytryptamine receptor 2B; test: Agonist activity at 5-HT2B receptor (unknown origin) assessed as stimulation of phospho-inositide hydrolysis by IP hydrolysis assay; assay type: functional
[8] = target: T2, 5-hydroxytryptamine receptor 2B; test: Agonist activity at 5-HT2B receptor (unknown origin) assessed as stimulation of intracellular calcium level by calcium mobilization assay; assay type: functional, cell-based
[9] = target: T2, 5-hydroxytryptamine receptor 2B; test: Agonist activity at 5-HT2B receptor (unknown origin) assessed as stimulation of […] by calcium mobilization assay; assay type: functional

T2 sequence (P41595 whole entry): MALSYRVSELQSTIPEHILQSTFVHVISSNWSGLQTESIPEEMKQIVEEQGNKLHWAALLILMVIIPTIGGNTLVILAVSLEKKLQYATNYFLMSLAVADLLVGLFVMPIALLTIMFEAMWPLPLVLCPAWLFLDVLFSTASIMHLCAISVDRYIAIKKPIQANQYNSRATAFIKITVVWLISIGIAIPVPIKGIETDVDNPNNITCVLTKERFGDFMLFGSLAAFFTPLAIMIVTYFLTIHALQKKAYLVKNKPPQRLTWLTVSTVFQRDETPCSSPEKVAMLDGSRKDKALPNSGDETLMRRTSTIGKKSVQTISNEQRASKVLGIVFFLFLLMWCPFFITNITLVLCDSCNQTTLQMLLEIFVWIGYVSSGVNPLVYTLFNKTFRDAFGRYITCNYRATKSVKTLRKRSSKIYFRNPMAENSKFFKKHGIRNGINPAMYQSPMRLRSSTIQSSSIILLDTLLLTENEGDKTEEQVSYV
Sequence of Cytochrome P450 3A4 (P08684 whole entry): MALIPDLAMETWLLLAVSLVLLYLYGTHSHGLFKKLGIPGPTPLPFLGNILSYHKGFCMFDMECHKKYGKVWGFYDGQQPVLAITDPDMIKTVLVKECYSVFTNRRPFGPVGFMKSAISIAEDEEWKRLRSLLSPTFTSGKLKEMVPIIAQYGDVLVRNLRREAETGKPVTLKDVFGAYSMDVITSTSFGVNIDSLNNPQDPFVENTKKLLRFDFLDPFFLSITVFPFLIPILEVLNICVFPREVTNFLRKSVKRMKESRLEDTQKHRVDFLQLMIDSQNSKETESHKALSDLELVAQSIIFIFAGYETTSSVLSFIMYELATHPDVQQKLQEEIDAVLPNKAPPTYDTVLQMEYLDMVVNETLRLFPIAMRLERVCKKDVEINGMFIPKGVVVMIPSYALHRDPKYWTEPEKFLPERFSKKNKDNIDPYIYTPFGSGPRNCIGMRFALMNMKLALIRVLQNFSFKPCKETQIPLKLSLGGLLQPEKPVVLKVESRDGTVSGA
Sequence of Cytochrome P450 2D6 (P10635 whole entry): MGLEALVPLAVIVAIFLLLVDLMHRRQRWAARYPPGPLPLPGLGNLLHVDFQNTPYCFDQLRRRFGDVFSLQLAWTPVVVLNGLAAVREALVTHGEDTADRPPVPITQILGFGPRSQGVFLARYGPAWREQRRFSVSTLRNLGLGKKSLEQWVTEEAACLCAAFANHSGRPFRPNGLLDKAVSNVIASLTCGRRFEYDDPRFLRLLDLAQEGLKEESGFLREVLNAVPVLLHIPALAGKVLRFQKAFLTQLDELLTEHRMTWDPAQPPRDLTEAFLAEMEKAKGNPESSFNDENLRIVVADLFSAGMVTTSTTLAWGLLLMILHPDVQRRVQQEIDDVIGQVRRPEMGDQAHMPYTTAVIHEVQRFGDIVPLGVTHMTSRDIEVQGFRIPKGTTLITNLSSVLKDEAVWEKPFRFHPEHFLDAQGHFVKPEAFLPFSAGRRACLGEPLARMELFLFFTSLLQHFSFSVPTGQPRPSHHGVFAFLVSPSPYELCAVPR
Sequence of Cytochrome P450 2C9 (P11712 whole entry): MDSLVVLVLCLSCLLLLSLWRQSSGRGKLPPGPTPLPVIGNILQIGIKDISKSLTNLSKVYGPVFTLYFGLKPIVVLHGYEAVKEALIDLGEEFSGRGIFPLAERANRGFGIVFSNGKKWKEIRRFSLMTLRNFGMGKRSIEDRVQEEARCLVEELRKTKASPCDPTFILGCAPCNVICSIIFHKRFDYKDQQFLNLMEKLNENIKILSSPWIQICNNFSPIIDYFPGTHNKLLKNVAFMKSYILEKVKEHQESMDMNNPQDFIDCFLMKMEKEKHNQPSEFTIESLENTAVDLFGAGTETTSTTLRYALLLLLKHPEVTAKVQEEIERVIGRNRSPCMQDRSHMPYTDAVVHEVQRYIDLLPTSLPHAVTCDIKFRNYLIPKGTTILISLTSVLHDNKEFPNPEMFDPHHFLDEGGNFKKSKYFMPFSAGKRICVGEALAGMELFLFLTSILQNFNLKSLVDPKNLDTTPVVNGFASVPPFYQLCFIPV

In the case of `Cn1ccc2cc(-n3c(=O)[nH]c4sc5c(c4c3=O)CCCC5)ccc21`, the IC50 (Cytochrome P450 1A2) is reported as greater than 30000 nM, the IC50 (Cytochrome P450 2C9) is reported as greater than 30000 nM and the IC50 (Cytochrome P450 2D6) is reported as greater than 30000 nM. For the same compound, the IC50 (Cytochrome P450 3A4) was greater than 30000 nM, the Kp [1] was 0.01 and the half-life [2] was 42 min. For the same compound, the Cmax [3] was 43000 ng/mL.

`Cc1cc(NC(=O)Nc2ccc3c(ccn3C)c2)sn1` showed a Ki [4] of 11.2 nM and a Selectivity ratio [5] greater than 135.

Work on `O=C1[C@@H]2[C@@H]3C[C@@H](C[C@H]3O)[C@@H]2C(=O)N1C[C@@H]1CCCC[C@H]1CN1CCN(c2nsc3ccccc23)CC1` yielded a Ki [6] of 24 nM.

`C[C@H](N)Cc1cccc(C(F)(F)F)c1` [NORDEXFENFLURAMINE] gave an EC50 [7] of 23 nM, an EC50 [8] of 23 nM and an EC50 [9] of 23 nM.
